Reference: patent US20220323455A1, “FUSED HETEROCYCLIC DERIVATIVES AS ANTIVIRAL AGENTS” (priority 2019, published 2022)
pEC50: −log10 of the molar value.

Assays:
[1] = Cytotoxicity in HepG2.117 cells (ATPlite Luminescence Assay); assay type: cell-based; conditions: human, incubated for 3 days, cell viability, mean value, read-out: TOX-HepG2.117 CC50 (μM, mean value)
Experimental: Cytotoxicity of the compounds was tested using HepG2 or HepG2.117 cells, incubated for 3 days in the presence of compounds. The viability of the cells was assessed using the PERKIN ELMER ATPlite Luminescence Assay System.”

[2] = test system: HBV; assay: Anti-HBV activity in HepG2.117 cell line (intracellular HBV DNA, real-time PCR); assay type: cell-based; conditions: Hepatitis B virus, read-out: HBV-AVE-HepG2.117 EC50 (μM, mean value)
Experimental: The anti HBV activity was measured using the HepG2.117 cell line, a stable, inducibly HBV producing cell line, which replicates HBV in the absence of doxicycline (Tet-off system). The HepG2 cell line is available from ATCC® under number HB-8065. Transfection of the HepG2 cell line can be as described in Sun and Nassal 2006 Journal of Hepatology 45 (2006) 636-645 “Stable HepG2- and Huh7-based human hepatoma cell lines for efficient regulated expression of infectious hepatitis B virus”.
For the antiviral assay, HBV replication was induced, followed by a treatment with serially diluted compound in 96-well plates. After 3 days of treatment, the antiviral activity was determined by quantification of intracellular HBV DNA using real-time PCR and an HBV specific primer set and probe.

[3] = test system: HBV; assay: HBV replication inhibition assay (BDNA assay) in HepG2.2.15 cells; assay type: cell-based, Hepatitis B virus; conditions: 6 days, encapsidated HBV DNA in supernatant
In short: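 HepG2.2.15 cells were dosed with serially diluted compound (0.5% DMSO), with compound and medium renewed at day 3. Day-6 supernatants were DNase-treated and proteinase K-lysed, and encapsidated HBV DNA was quantified by branched-DNA assay. Percent inhibition was set against DMSO controls and EC50 obtained by nonlinear fit.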

[4] = 72 h, HepG2.117 cells, 3 days of treatment, intracellular HBV DNA, mean value

Structure (SMILES)	CC50 at 3 days [1] [µM]	EC50 [2, 4] [µM]	pEC50 [3]	further results
C[C@@H]1Cc2nn3c(c2CN1C(=O)c1ccc(Cl)c(Cl)c1)C(F)(F)C(O)CCC3 (stereo partly drawn) [Example C6, (3,4-Dichlorophenyl)[(3R)-11,11-difluoro-10-hydroxy-3-methyl-1,3,4,7,8,9,10,11-octahydro-2H-pyrido[4′,3′:3,4]pyrazolo[1,5-a]azepin-2-yl]methanone]	> 50	3.28	–	–
C[C@@H]1Cc2nn3c(c2CN1C(=O)c1ccc(Cl)c(Cl)c1)C(F)(F)CC[C@H](CO)C3 (single isomer, unassigned) [Example C13, (3,4-Dichlorophenyl)[(3R,8*S)-11,11-difluoro-8-(hydroxymethyl)-3-methyl-1,3,4,7,8,9,10,11-octahydro-2H-pyrido[4′,3′:3,4]pyrazolo[1,5-a]azepin-2-yl]methanone]	33.6	< 0.195	–	–
C[C@@H]1Cc2nn3c(c2CN1C(=O)c1ccc(Cl)c(Cl)c1)C(F)(F)C(Oc1ccc(C#N)cc1)CCC3 (stereo partly drawn) [Example C7, 4-{[(3R)-2-(3,4-Dichlorobenzoyl)-11,11-difluoro-3-methyl-1,3,4,7,8,9,10,11-octahydro-2H-pyrido[4′,3′:3,4]pyrazolo[1,5-a]azepin-10-yl]oxy}benzonitrile]	> 50	–	–	EC50 ([2]; HepG2.117, 72 h): 2.38 µM
COc1ccc(CN2CCn3nc4c(c3C(F)(F)C2)CN(C(=O)c2ccc(Cl)c(Cl)c2)[C@H](C)C4)cc1 [Example C1, (3,4-Dichlorophenyl){(3R)-11,11-difluoro-9-[(4-methoxyphenyl)methyl]-3-methyl-1,3,4,7,8,9,10,11-octahydro-2H-pyrido[4′,3′:3,4]pyrazolo[1,5-d][1,4]diazepin-2-yl}methanone]	15.7	0.274	–	–
C#C[C@]1(O)CCC(F)(F)c2c3c(nn2C1)C[C@@H](C)N(C(=O)c1ccc(Cl)c(Cl)c1)C3 (single isomer, unassigned) [Example C10, (3,4-Dichlorophenyl)[(3R,8*R)-8-ethynyl-11,11-difluoro-8-hydroxy-3-methyl-1,3,4,7,8,9,10,11-octahydro-2H-pyrido[4′,3′:3,4]pyrazolo[1,5-a]azepin-2-yl]methanone]	36.9	0.078	–	–
C#C[C@@]1(O)CCC(F)(F)c2c3c(nn2C1)C[C@@H](C)N(C(=O)c1ccc(Cl)c(Cl)c1)C3 (single isomer, unassigned) [Example C11, (3,4-Dichlorophenyl)[(3R,8*S)-8-ethynyl-11,11-difluoro-8-hydroxy-3-methyl-1,3,4,7,8,9,10,11-octahydro-2H-pyrido[4′,3′:3,4]pyrazolo[1,5-a]azepin-2-yl]methanone]	33.8	0.257	–	–
CC(=O)NCC1CCC(F)(F)c2c3c(nn2C1)CCN(C(=O)c1ccc(Cl)c(Cl)c1)C3 (stereo not drawn) [Example C15, N-{[2-(3,4-dichlorobenzoyl)-11,11-difluoro-1,3,4,7,8,9,10,11-octahydro-2H-pyrido[4′,3′:3,4]-pyrazolo[1,5-a]azepin-8-yl]methyl}acetamide]	> 50	0.221	–	–
C[C@@H]1Cc2nn3c(c2CN1C(=O)c1ccc(Cl)c(Cl)c1)C(F)(F)CC[C@H](O)C3 (single isomer, unassigned) [Example C9, (3,4-Dichlorophenyl)[(3R,8*S)-11,11-difluoro-8-hydroxy-3-methyl-1,3,4,7,8,9,10,11-octahydro-2H-pyrido[4′,3′:3,4]pyrazolo[1,5-a]azepin-2-yl]methanone]	> 50	0.018	–	–
C[C@@H]1Cc2nn3c(c2CN1C(=O)c1ccc(Cl)c(Cl)c1)C(F)(F)CNCC3 [Example C2, (3,4-Dichlorophenyl)[(3R)-11,11-difluoro-3-methyl-1,3,4,7,8,9,10,11-octahydro-2H-pyrido[4′,3′:3,4]pyrazolo[1,5-d][1,4]diazepin-2-yl]methanone]	> 50	0.088	–	–
O=C(c1ccc(Cl)c(Cl)c1)N1CCc2nn3c(c2C1)C(F)(F)CCC(CNC(=O)C(F)(F)F)C3 (stereo not drawn) [Example C17, N-{[2-(3,4-Dichlorobenzoyl)-11,11-difluoro-1,3,4,7,8,9,10,11-octahydro-2H-pyrido[4′,3′:3,4]-pyrazolo[1,5-a]azepin-8-yl]methyl}-2,2,2-trifluoroacetamide]	20	–	–	EC50 ([2]; HepG2.117, 72 h): 0.326 µM
C[C@@H]1Cc2nn3c(c2CN1C(=O)Nc1ccc(F)c(C#N)c1)C(F)(F)CCC(O)(COCC(F)F)C3 (single isomer, unassigned) [Example 93, (3R,8R*)—N-(3-Cyano-4-fluorophenyl)-8-((2,2-difluoroethoxy)methyl)-11,11-difluoro-8-hydroxy-3-methyl-3,4,89,10,11-hexahydro-1H-pyrido[4′,3′:3,4]pyrazolo[1,5-a]azepine-2(7H)-carboxamide]	–	–	7.35	–
C[C@@H]1Cc2nn3c(c2CN1C(=O)Nc1ccnc(Br)c1F)C(F)(F)CCC(C(C)(C)O)C3 (single isomer, unassigned) [Example 104, (3R,8R*)—N-(2-Bromo-3-fluoropyridin-4-yl)-11,11-difluoro-8-(2-hydroxypropan-2-yl)-3-methyl-3,4,8,9,10,11-hexahydro-1H-pyrido[4′,3′:3,4]pyrazolo[1,5-a]azepine-2(7H)-carboxamide]	–	–	7.44	–
C[C@@H]1Cc2nn3c(c2CN1C(=O)Nc1ccc(F)c(C#N)c1)C(F)(F)CCC(O)(CF)C3 (single isomer, unassigned) [Example 86, (3R,8S*)—N-(3-Cyano-4-fluorophenyl)-11,11-difluoro-8-(fluoromethyl)-8-hydroxy-3-methyl-3,4,8,9,10,11-hexahydro-1H-pyrido[4′,3′:3,4]pyrazolo[1,5-a]azepine-2(7H)-carboxamide]	–	–	7.70	–
N#CCC1(O)CCC(F)(F)c2c3c(nn2C1)CCN(C(=O)Nc1ccnc(Br)c1F)C3 (single isomer, unassigned) [Example 41, (R*)—N-(2-Bromo-3-fluoropyridin-4-yl)-8-(cyanomethyl)-11,11-difluoro-8-hydroxy-3,4,89,10,11-hexahydro-1H-pyrido[4′,3′:3,4]pyrazolo[1,5-a]azepine-2(7H)-carboxamide]	–	–	7.28	–
COC(=O)NCC1CCC(F)(F)c2c3c(nn2C1)C[C@@H](C)N(C(=O)Nc1ccnc(Br)c1F)C3 (single isomer, unassigned) [Example 106, Methyl (((3R,8R*)-2-((2-bromo-3-fluoropyridin-4-yl)carbamoyl)-11,11-difluoro-3-methyl-2,3,4,7,8,9,10,11-octahydro-1H-pyrido[4′,3′:3,4]pyrazolo[1,5-a]azepin-8-yl)methyl)carbamate]	–	–	8.00	–
C[C@@H]1Cc2nn3c(c2CN1C(=O)Nc1ccc(F)c(C#N)c1)C(F)(F)CCC(CO)C3 (single isomer, unassigned) [Example 79, (3R,8R*)—N-(3-Cyano-4-fluorophenyl)-11,11-difluoro-8-(hydroxymethyl)-3-methyl-3,4,8,9,10,11-hexahydro-1H-pyrido[4′,3′:3,4]pyrazolo[1,5-a]azepine-2(7H)-carboxamide]	–	–	–	pEC50 ([3]; Hepatitis B virus, HepG2.2.15, 144 h): 9.00
O=C(Nc1ccnc(Br)c1F)N1CCc2nn3c(c2C1)C(F)(F)CCC(O)(COCC(F)F)C3 (single isomer, unassigned) [Example 35, (S*)—N-(2-Bromo-3-fluoropyridin-4-yl)-8-((2,2-difluoroethoxy)methyl)-11,11-difluoro-8-hydroxy-3,4,8,9,10,11-hexahydro-1H-pyrido[4′,3′:3,4]pyrazolo[1,5-a]azepine-2(7H)-carboxamide]	–	–	7.01	–
